Square brackets hold non-standard residues; d marks the D form. Peptide text beside a SMILES is read from it. Nva = CCC[C@H](N)C(=O)O
Experiments:
[1] = target: T1, adiponectin receptor ADIPOR1 (Homo sapiens, UniProt Q96A54); assay: Kd (uM)
T1 construct: Flag tag (N); made in house; host or cells: SF9 insect cells (baculovirus, pFASTbac1)
From the text: Table printed on a drawing sheet, FIG. 1
Head of the field: Kd (uM)
Where the first naming reader finds the target: description_of_the_figure: dissociation constant values of synthetic peptides (3 peptides from 3rd round, 4 peptides from 4th round) from the adiponectin receptor ADIPOR1

[2] = test system: AMPK phosphorylation in HepG2 cell line; assay: Western blotting of AMPK phosphorylation in HepG2 cell line; format: cell-based; details: HepG2, 5 h starvation, 30 min treatment; tested at 20, 4 and 0.8 uM
Procedure: (§1) C2C12 and HepG2 cells were purchased from ATCC. Before use, they were cultured in a DMEM (Hyclone) medium supplemented with 10% FBS (Hyclone) and 1% penicillin/streptomycin in an incubator at 37° C. in a 5% CO2 environment.
(§2) Based on the prior finding, after optimization of the number of the cells to be used for experiment, HepG2 was starved for 5 hours, recovered, and treated with peptide for 30 minutes, and C2C12 was starved for 24 hours and treated with peptide for 10 minutes. The treated cell samples were washed once with cold PBS and lysed for 15 minutes with a RiPA buffer containing a protease inhibitor and a phosphatase inhibitor. After 15 minutes, centrifugation was carried out at 14000 rpm for 5 minutes to collect only proteins. After quantification, 4× sample buffer and 2-ME were added to prepare a sample for western blotting. The western blotting was performed using a conventional western blotting technique. The antibodies of AMPK, p-AMPK, p-AKT, p-ACC and GAPDH were diluted to 1:1000 or 1:2000 depending on the type thereof and imaging was performed with a LAS-4000 instrument.
HepG2 cell line was plated on a 12-well plate at a concentration of 8*10^5 cells/well on the day before the experiment. […]

[3] = test system: AMPK phosphorylation in C2C12 cell line; assay: Western blotting of AMPK phosphorylation in differentiated C2C12 myotubes; format: cell-based; details: 10 min treatment, tested at 20, 4 and 0.8 uM
Procedure: as §1
C2C12 cells were plated in 12 wells. […] Then, the medium was replaced with a differentiation medium in which DMEM is supplemented with 2.5% horse serum and 1% penicillin/streptomycin. Thereafter, differentiation was performed for 5-7 days, replacing the medium with a new differentiation medium every day. The thus-obtained product was used for experiments.
as §2, with “The antibodies of AMPK, p-AMPK, p-AKT, p-ACC and GAPDH were diluted to 1:1000 or 1:2000 depending on the type thereof and imaging was performed with a LAS-4000 instrument.” left out

[4] = target: T2, adiponectin receptor 1 (ADIPOR1) (Homo sapiens, UniProt Q96A54); assay: Surface plasmon resonance (SPR) binding of peptide to immobilized recombinant ADIPOR1; details: ADIPOR1 amine-coupled to CM5 chip, running buffer pH 7.4, read-out: dissociation constant (Kd) from ADIPOR1
T2 construct: Flag tag (N); made in house; host or cells: SF9 insect cells (baculovirus, pFASTbac1)
T2 sequence (Q96A54 89-375): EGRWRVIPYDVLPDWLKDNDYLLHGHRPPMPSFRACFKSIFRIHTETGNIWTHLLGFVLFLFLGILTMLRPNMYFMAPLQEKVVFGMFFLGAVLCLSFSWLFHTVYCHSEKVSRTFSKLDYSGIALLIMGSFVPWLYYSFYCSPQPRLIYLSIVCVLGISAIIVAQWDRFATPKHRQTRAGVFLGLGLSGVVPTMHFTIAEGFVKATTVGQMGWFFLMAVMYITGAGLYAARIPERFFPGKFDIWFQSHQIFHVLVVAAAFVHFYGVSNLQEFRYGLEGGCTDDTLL
From the text: The ADIPOR1 protein sequence used was the same as that used for the ADIPOR1 structure analysis, in which 88 amino acids at the N-terminal have been removed. The gene capable of producing the protein sequence was synthesized by codon optimization (IDT). At the time, a BamHI restriction enzyme site, a Flag tag and a TEV protease recognition sequence (ENLYFQG; SEQ ID NO: 11) were inserted at the 5′ end and an EcoRI restriction enzyme site was inserted at the 3′ end in order to facilitate cloning and purify the expressed protein. The obtained gene was inserted into the pFASTbac1 vector required for baculovirus production to perform cloning. The cloned vector was transfected into DH10 bac (Invitrogen) to obtain a bacmid comprising the ADIPOR1 gene through recombination. In order to produce baculovirus, the obtained bacmid was transfected into SF9 cells (5×10^4 cells) using Transfectine (Qiagen), and the baculovirus secreted in a medium was collected after 5 days. Then, a large amount of baculovirus was produced through amplification. The obtained baculovirus was inoculated into SF9 cells (5×10^6 cells/ml) cultured in a 1 L SFM900 medium, and protein was expressed at a temperature of 27° C. for 3 days. The SF9 cells expressing recombinant ADIPOR1 were obtained through centrifugation. The obtained cell pellets were aliquoted and stored at −80° C., and used in protein purification as needed to minimize the disadvantages of membrane proteins, which have the possibility of inactivation due to storage after purification. The ADIPOR1, which is a membrane protein expressed on a cell membrane, was solubilized using a detergent (1% DDM) for purification. The dissolved sample was reacted with anti-Flag antibody bead (Sigma) for 1 hour in ice. Then, ADIPOR1 bound to the anti-Flag antibody bead was eluted with Flag peptide. The primarily purified ADIPOR1 was subjected to size exclusion chromatography (Supderdex200, GE healthcare) to obtain only monomeric, proteins. […]
In order to analyze the binding force between peptide and ADIPOR1, a purified recombinant ADIPOR1 (A88) was bound to a CM5 chip with 3000 RU or higher through amine coupling. […] The affinity value was calculated using the affinity fitting or kinetics fitting method. […] The peptide concentrations were calculated by measuring the […] and A280 absorbance of each peptide.
With reference to FIGS. 3 and 4, surface plasmon resonance (SPR) experiments were performed in the present invention to measure the dissociation constant between the agonist peptide and the adiponectin receptor, particularly adiponectin receptor 1 (ADIPOR1). First, an expressed and purified adiponectin receptor ADIPOR1 was immobilized and its dissociation constant from candidate peptides was measured over a total of 4 rounds.

T1 sequence (Q96A54 whole entry, looked up): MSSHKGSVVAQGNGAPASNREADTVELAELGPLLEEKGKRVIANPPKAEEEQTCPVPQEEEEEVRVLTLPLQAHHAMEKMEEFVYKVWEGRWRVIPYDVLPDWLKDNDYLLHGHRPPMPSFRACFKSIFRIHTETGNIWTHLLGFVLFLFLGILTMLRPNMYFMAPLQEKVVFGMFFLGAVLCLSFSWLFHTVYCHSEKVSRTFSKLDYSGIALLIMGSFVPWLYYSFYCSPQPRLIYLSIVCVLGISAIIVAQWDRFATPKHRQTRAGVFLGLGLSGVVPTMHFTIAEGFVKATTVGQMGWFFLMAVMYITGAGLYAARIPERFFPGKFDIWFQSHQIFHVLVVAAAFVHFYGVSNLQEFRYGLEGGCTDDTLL

SMILES	Kd [1]	Kd [4]	also measured
CC[C@H](C)[C@H](NC(=O)[C@H](CC(N)=O)NC(=O)[C@@H]1CCCN1C(=O)[C@H](Cc1c[nH]cn1)NC(=O)[C@H](Cc1ccc(O)cc1)NC(=O)[C@H](C)NC(=O)[C@H](Cc1ccccc1)NC(=O)[C@H](Cc1ccc(O)cc1)NC(=O)[C@@H](N)Cc1ccc(O)cc1)C(=O)N1CCC[C@H]1C(=O)NCC(=O)N[C@@H](CC(C)C)C(=O)N[C@@H](Cc1ccc(O)cc1)C(=O)N[C@@H](Cc1ccc(O)cc1)C(=O)N[C@@H](Cc1ccccc1)C(=O)O [3-1, YYFAYHPNIPGLYYF (SEQ ID NO: 1 where Xaa1 and Xaa13 each is tyrosine)] (H-YYFAYHPNIPGLYYF-OH; N-terminus and C-terminus assumed)	16 µM		
CC[C@H](C)[C@H](NC(=O)[C@H](CC(N)=O)NC(=O)[C@@H]1CCCN1C(=O)[C@H](Cc1c[nH]cn1)NC(=O)[C@H](Cc1ccc(O)cc1)NC(=O)[C@H](C)NC(=O)[C@H](Cc1ccccc1)NC(=O)[C@H](CO)NC(=O)[C@@H](N)Cc1ccc(O)cc1)C(=O)N1CCC[C@H]1C(=O)NCC(=O)N[C@@H](CC(C)C)C(=O)N[C@@H](Cc1ccc(O)cc1)C(=O)N[C@@H](Cc1ccc(O)cc1)C(=O)N[C@@H](Cc1ccccc1)C(=O)O [4-5, YSFAYHPNIPGLYYF (SEQ ID NO: 7)] (H-YSFAYHPNIPGLYYF-OH; N-terminus and C-terminus assumed)	24.5 µM		
CCC[C@H](NC(=O)[C@@H]1CCCN1C(=O)[C@@H](NC(=O)[C@H](N)CC(N)=O)[C@@H](C)CC)C(=O)N[C@@H](CC(C)C)C(=O)N[C@@H](Cc1ccc(O)cc1)C(=O)N[C@H](CO)C(=O)N[C@@H](Cc1ccccc1)C(=O)N[C@@H](C)C(=O)N[C@H](CO)C(N)=O [ADP355, H-DAsn-Ile-Pro-Nva-Leu-Tyr-DSer-Phe-Ala-DSer-NH2] (H-[dN]IP[Nva]LY[dS]FA[dS]-NH2)		≥ 100 µM	concentration from which AMPK was phosphorylated [2]: 20 µM; concentration from which AMPK was phosphorylated [3]: 4 µM
CC[C@H](C)[C@H](NC(=O)[C@H](CC(N)=O)NC(=O)[C@@H]1CCCN1C(=O)[C@H](Cc1c[nH]cn1)NC(=O)[C@H](Cc1ccc(O)cc1)NC(=O)[C@H](C)NC(=O)[C@H](Cc1ccccc1)NC(=O)[C@H](Cc1ccc(O)cc1)NC(=O)[C@@H](N)Cc1ccc(O)cc1)C(=O)N1CCC[C@H]1C(=O)NCC(=O)N[C@@H](CC(C)C)C(=O)N[C@@H](Cc1ccc(O)cc1)C(=O)N[C@@H](Cc1ccc(O)cc1)C(=O)N[C@@H](Cc1ccccc1)C(=O)O [peptide 3-1, Tyr-Tyr-Phe-Ala-Tyr-His-Pro-Asn-Ile-Pro-Gly-Leu-Tyr-Tyr-Phe] (H-YYFAYHPNIPGLYYF-OH)		≤ 16 µM	
CC[C@H](C)[C@H](NC(=O)[C@H](CC(N)=O)NC(=O)[C@@H]1CCCN1C(=O)[C@H](Cc1c[nH]cn1)NC(=O)[C@H](Cc1ccc(O)cc1)NC(=O)[C@H](C)NC(=O)[C@H](Cc1ccccc1)NC(=O)[C@H](Cc1ccc(O)cc1)NC(=O)[C@@H](N)Cc1c[nH]c2ccccc12)C(=O)N1CCC[C@H]1C(=O)NCC(=O)N[C@@H](CC(C)C)C(=O)N[C@@H](Cc1c[nH]c2ccccc12)C(=O)N[C@@H](Cc1ccc(O)cc1)C(=O)N[C@@H](Cc1ccccc1)C(=O)O [peptide 4-3, Trp-Tyr-Phe-Ala-Tyr-His-Pro-Asn-Ile-Pro-Gly-Leu-Trp-Tyr-Phe] (H-WYFAYHPNIPGLWYF-OH)		6 to 10 µM	
CC[C@H](C)[C@H](NC(=O)[C@H](CC(N)=O)NC(=O)[C@@H]1CCCN1C(=O)[C@H](Cc1c[nH]cn1)NC(=O)[C@H](Cc1ccc(O)cc1)NC(=O)[C@H](C)NC(=O)[C@H](Cc1ccccc1)NC(=O)[C@H](Cc1ccc(O)cc1)NC(=O)[C@@H](N)Cc1ccccc1)C(=O)N1CCC[C@H]1C(=O)NCC(=O)N[C@@H](CC(C)C)C(=O)N[C@@H](Cc1ccccc1)C(=O)N[C@@H](Cc1ccc(O)cc1)C(=O)N[C@@H](Cc1ccccc1)C(=O)O [peptide 4-4, Phe-Tyr-Phe-Ala-Tyr-His-Pro-Asn-Ile-Pro-Gly-Leu-Phe-Tyr-Phe] (H-FYFAYHPNIPGLFYF-OH)		2 to 4.3 µM	

Reference: patent US10561705B2, “Agonist peptide for adiponectin receptor” (priority 2016, dated 2020)
